These are literature values, as cited in patent publication US20100291629A1, “USE OF DELEUCOCYTATION FILTERS FOR DEFENSIN PURIFICATION” (ETABLISSEMENT FRANCAIS DU SANG, priority 2006, published 2010).

In data set [1] the test system is neutrophils. The conditions noted are these: PMA 1 μg/ml.
The subject of data set [2] is neutrophils.
The subject of another data set is isolated neutrophils. Conditions: Ionomycin 1 μM; 30.10^6 isolated neutrophils.

As to `CCCCCCCCCCCCCC(=O)O[C@@H]1[C@@H](C)[C@@]2(O)[C@@H](C=C(CO)C[C@]3(O)C(=O)C(C)=C[C@@H]23)[C@@H]2C(C)(C)[C@]12OC(C)=O` [PMA, phorbol myristate acetate], the defensins released in the data set with neutrophils [1] is recorded as 8%.
For the compound `CSCC[C@H](NC=O)C(=O)N[C@@H](CC(C)C)C(=O)N[C@@H](Cc1ccccc1)C(=O)O` [fMLP, N-formylmethionyl-leucyl-phenylalanine], the “defensin release, % of the content” value in the data set on neutrophils [2] (fMLP 10^−7 M) is given as 17%.
Regarding `C[C@H](CCC(=O)O)C[C@H](C)C[C@H](C)C(=O)/C=C(\O)[C@H](C)C[C@H](C)C/C=C/[C@@H](C)[C@@H](O)[C@@H](C)[C@@H](O)C[C@@H]1CC[C@@](C)([C@H]2CC[C@@](C)([C@@H](C)O)O2)O1` [ionomycin, Ionomycin], in the data set with isolated neutrophils, the α-defensin exocytosis rate result is recorded as “approximately 20%”.
Regarding “IL8: Interleukine 8, used to treat neutrophils in vitro”, the “defensin release, % of the defensin content in neutrophil granules” value in the data set with neutrophils [2] (IL8 50 ng/ml, 2.10^6 neutrophils) is reported as 10%.
